Test: Oral absorbability in rats: overall coenzyme Q10 concentration in plasma by HPLC after oral administration (AUC)
Parameters: species or system Spregue-Dawley rats
Conditions: rat, in vivo, 57.8 umol/kg
Description: (§1) To seven-weeks old male Spregue-Dawley rats (obtained from Japan SLC, Inc.) were orally administered the derivatives of reduced coenzyme Q10 obtained in Examples 3, 4 and 5 and the starting reduced coenzyme Q10 as control each in 57.8 μmol/kg (50 mg/kg in terms of reduced coenzyme Q10). Blood was extracted from each rat after 1, 2, 4, 8 and 24 hours after administration of each sample. Each extracted blood was centrifuged, so that plasma was obtained. Then, oxidation treatment of reduced coenzyme Q10 in the plasma and extraction treatment of oxidized coenzyme Q10 were performed, and then the overall coenzyme Q10 concentration in the plasma was measured as oxidized coenzyme Q10 by using HPLC.
as §1, with “derivative” for “derivatives”, “Referential Example 1” for “Examples 3, 4 and 5”

COc1c(OC(C)=O)c(C)c(CC=C(C)CCC=C(C)CCC=C(C)CCC=C(C)CCC=C(C)CCC=C(C)CCC=C(C)CCC=C(C)CCC=C(C)CCC=C(C)C)c(OC(C)=O)c1OC [Bisacetyl derivative, Bisacetyl Derivative]
AUC (area under the blood concentration-time curve) as compared with reduced coenzyme Q10, in words: lower
